In paper PMC8162437, “Copper-mediated peptide arylation selective for the N-terminus” (Chemical Science, 2020):
Starred links: 1 amine or outer side, 2 acyl side, 3 side chain; linkers in the order of their positions; H or OH if unused. Non-standard residues stand in square brackets, D forms with d. Residues, ends and D or L forms follow the SMILES beside them. X1 = CNS(=O)(=O)c1ccccc1N([C@H](C(=O)[*:2])C(C)C)[*:1]

System: Pfu aminopeptidase I
Settings: 100 μM 5, 40 μM 5a, 0.08 μg mL−1 aminopeptidase I, 20 μM Co(OAc)2, NaOAc buffer 5 mM, pH 6.0, 95 °C, quenched with EDTA, RP-HPLC at 220 and 310 nm, internal standard 19, starting material peak area compared with 0 h
Protocol: (b) RP-HPLC analysis of the enzymatic degradation of angiotensin IV (5) and arylated angiotensin IV (5a) with aminopeptidase I. Conditions: 100 μM 5, 40 μM 5a, 0.08 μg mL^−1 aminopeptidase I, and 20 μM Co(OAc)2 in NaOAc buffer (5 mM, pH = 6.0) at 95 °C. Internal standard 19 for quantification. (c) Peptidase activity: time course for aminopeptidease I cleavage of arylated angiotensin IV (5a, orange) and angiotensin IV (5, blue).
We decided to investigate whether the charge and structural perturbation afforded by the N-arylation engendered peptide stability towards enzymatic degradation.
Enzymatic Degradation with Aminopeptidase I
Stability Test of Peptides to Aminopeptidase I
1.7 mM in 20% aq. MeCN) and Co(OAc)2 (50 µL, 200 µM in H2O) in NaOAc buffer (338 µL, 5 mM,
pH = 6.0) was added aminopeptidase I (75 µL, 0.5 mg/mL in Tris buffer (50 mM, pH = 6.0). A 50 -
µL aliquot was immediately removed after addition of the enzyme and was quenched with EDTA
(5 µL, 1 M in H2O). Internal standard 2-amino-N,N’-dimethylbenzenesulfonamide 19 was added
(1.5 μL, 4 mM in DMSO) and the 0 h timepoint was analyzed by RP-HPLC (20-60% MeCN over
28 min) at 220 nm and 310 nm. The reaction mixture was then heated to 95 °C and 50-µL aliquots
were removed and quenched with EDTA (5 µL, 1 M in H2O) at 10 min, 30 min, 1 h, and 2 h. After
quenching, the internal standard 19 was added (1.5 μL, 4 mM in DMSO) and analyzed by RP- […]

`CC[C@H](C)[C@H](NC(=O)[C@H](Cc1ccc(O)cc1)NC(=O)[C@@H](N)C(C)C)C(=O)N[C@@H](Cc1cnc[nH]1)C(=O)N1CCC[C@H]1C(=O)N[C@@H](Cc1ccccc1)C(=O)O` [compound 5, Angiotensin IV] was tested, and the “Stability towards enzymatic degradation by aminopeptidase I, after 10 minutes” value (10 min) was “completely consumed”.

In the case of `CC[C@H](C)[C@H](NC(=O)[C@H](Cc1ccc(O)cc1)NC(=O)[C@@H](Nc1ccccc1S(=O)(=O)NC)C(C)C)C(=O)N[C@@H](Cc1c[nH]cn1)C(=O)N1CCC[C@H]1C(=O)N[C@@H](Cc1ccccc1)C(=O)O` [5a] (H-[X1]YIHPF-OH), the “Stability towards enzymatic degradation by aminopeptidase I, after 2 h incubation” value (2 h) is reported as “remained stable”.
